Tests used:
Assay type in all cases: functional, cell-free
[1] = Antioxidant activity against Cu2+-induced lipid peroxidation in human plasma LDL assessed as vitamin E consumption at 5 umol/L preincubated for 1 hr before Cu2+ challenge measured after 120 mins
[2] = Antioxidant activity against Cu2+-induced lipid peroxidation in human plasma LDL assessed as maximal compound concentration at 10 umol/L preincubated for 1 hr before Cu2+ challenge measured after 150 mins relative to compound present at 0 min
[3] = Antioxidant activity against Cu2+-induced lipid peroxidation in human plasma LDL assessed as lysophosphatidylcholine formation at 10 umol/L preincubated for 1 hr before Cu2+ challenge measured after 180 mins
[4] = Antioxidant activity against Cu2+-induced lipid peroxidation in human plasma LDL assessed as lysophosphatidylcholine formation at 5 umol/L preincubated for 1 hr before Cu2+ challenge measured after 270 mins
[5] = Antioxidant activity against Cu2+-induced lipid peroxidation in human plasma LDL assessed as conjugated diene formation preincubated for 1 hr before Cu2+ challenge
[6] = Antioxidant activity against Cu2+-induced lipid peroxidation in human plasma LDL assessed as maximal compound concentration at 10 umol/L preincubated for 1 hr before Cu2+ challenge measured after 45 mins relative to compound present at 0 min
[7] = Antioxidant activity against Cu2+-induced lipid peroxidation in human plasma LDL assessed as maximal compound concentration at 20 umol/L preincubated for 1 hr before Cu2+ challenge measured after 90 mins relative to compound present at 0 min
[8] = Antioxidant activity against Cu2+-induced lipid peroxidation in human plasma LDL assessed as vitamin E consumption at 20 umol/L preincubated for 1 hr before Cu2+ challenge measured after 15 mins
[9] = Antioxidant activity against Cu2+-induced lipid peroxidation in human plasma LDL assessed as conjugated diene formation at 10 umol/L preincubated for 1 hr before Cu2+ challenge measured after 120 mins
[10] = Antioxidant activity against Cu2+-induced lipid peroxidation in human plasma LDL assessed as vitamin E consumption at 5 umol/L preincubated for 1 hr before Cu2+ challenge measured after 60 mins
[11] = Antioxidant activity against Cu2+-induced lipid peroxidation in human plasma LDL assessed as conjugated diene formation at 5 umol/L preincubated for 1 hr before Cu2+ challenge measured after 120 mins
[12] = Antioxidant activity against Cu2+-induced lipid peroxidation in human plasma LDL assessed as vitamin E consumption at 20 umol/L preincubated for 1 hr before Cu2+ challenge measured after 90 mins
[13] = Antioxidant activity against Cu2+-induced lipid peroxidation in human plasma LDL assessed as lysophosphatidylcholine formation at 10 umol/L preincubated for 1 hr before Cu2+ challenge measured after 60 mins
[14] = Antioxidant activity against Cu2+-induced lipid peroxidation in human plasma LDL assessed as vitamin E consumption at 20 umol/L preincubated for 1 hr before Cu2+ challenge measured after 210 mins
[15] = Antioxidant activity against Cu2+-induced lipid peroxidation in human plasma LDL assessed as lysophosphatidylcholine formation preincubated for 1 hr before Cu2+ challenge
[16] = Antioxidant activity against Cu2+-induced lipid peroxidation in human plasma LDL assessed as conjugated diene formation at 5 umol/L preincubated for 1 hr before Cu2+ challenge measured after 90 mins
[17] = Antioxidant activity against Cu2+-induced lipid peroxidation in human plasma LDL assessed as maximal compound concentration at 20 umol/L preincubated for 1 hr before Cu2+ challenge measured after 180 mins relative to compound present at 0 min
[18] = Antioxidant activity against Cu2+-induced lipid peroxidation in human plasma LDL assessed as maximal compound concentration at 10 umol/L preincubated for 1 hr before Cu2+ challenge measured after 210 mins relative to compound present at 0 min
[19] = Antioxidant activity against Cu2+-induced lipid peroxidation in human plasma LDL assessed as lysophosphatidylcholine formation at 20 umol/L preincubated for 1 hr before Cu2+ challenge measured after 60 mins
[20] = Antioxidant activity against Cu2+-induced lipid peroxidation in human plasma LDL assessed as maximal compound concentration at 20 umol/L preincubated for 1 hr before Cu2+ challenge measured after 45 mins relative to compound present at 0 min
[21] = Antioxidant activity against Cu2+-induced lipid peroxidation in human plasma LDL assessed as conjugated diene formation at 10 umol/L preincubated for 1 hr before Cu2+ challenge measured after 90 mins
[22] = Antioxidant activity against Cu2+-induced lipid peroxidation in human plasma LDL assessed as maximal compound concentration at 10 umol/L preincubated for 1 hr before Cu2+ challenge measured after 90 mins relative to compound present at 0 min
[23] = Antioxidant activity against Cu2+-induced lipid peroxidation in human plasma LDL assessed as vitamin E consumption at 20 umol/L preincubated for 1 hr before Cu2+ challenge measured after 150 mins
[24] = Antioxidant activity against Cu2+-induced lipid peroxidation in human plasma LDL assessed as lysophosphatidylcholine formation at 20 umol/L preincubated for 1 hr before Cu2+ challenge measured after 270 mins
[25] = Antioxidant activity against Cu2+-induced lipid peroxidation in human plasma LDL assessed as conjugated diene formation at 5 umol/L preincubated for 1 hr before Cu2+ challenge measured after 210 mins
[26] = Antioxidant activity against Cu2+-induced lipid peroxidation in human plasma LDL assessed as lysophosphatidylcholine formation at 10 umol/L preincubated for 1 hr before Cu2+ challenge measured after 210 mins
[27] = Antioxidant activity against Cu2+-induced lipid peroxidation in human plasma LDL assessed as maximal compound concentration at 5 umol/L preincubated for 1 hr before Cu2+ challenge measured after 270 mins relative to compound present at 0 min
[28] = Antioxidant activity against Cu2+-induced lipid peroxidation in human plasma LDL assessed as lysophosphatidylcholine formation at 20 umol/L preincubated for 1 hr before Cu2+ challenge measured after 90 mins
[29] = Antioxidant activity against Cu2+-induced lipid peroxidation in human plasma LDL assessed as vitamin E consumption at 10 umol/L preincubated for 1 hr before Cu2+ challenge measured after 120 mins
[30] = Antioxidant activity against Cu2+-induced lipid peroxidation in human plasma LDL assessed as vitamin E consumption at 20 umol/L preincubated for 1 hr before Cu2+ challenge measured after 270 mins
[31] = Antioxidant activity against Cu2+-induced lipid peroxidation in human plasma LDL assessed as maximal compound concentration at 20 umol/L preincubated for 1 hr before Cu2+ challenge measured after 15 mins relative to compound present at 0 min
[32] = Antioxidant activity against Cu2+-induced lipid peroxidation in human plasma LDL assessed as lysophosphatidylcholine formation at 10 umol/L preincubated for 1 hr before Cu2+ challenge measured after 150 mins
[33] = Antioxidant activity against Cu2+-induced lipid peroxidation in human plasma LDL assessed as vitamin E consumption at 5 umol/L preincubated for 1 hr before Cu2+ challenge measured after 45 mins
[34] = Antioxidant activity against Cu2+-induced lipid peroxidation in human plasma LDL assessed as vitamin E consumption at 5 umol/L preincubated for 1 hr before Cu2+ challenge measured after 90 mins

SMILES: CC(C)(Sc1cc(C(C)(C)C)c(O)c(C(C)(C)C)c1)Sc1cc(C(C)(C)C)c(O)c(C(C)(C)C)c1
- Activity [1]: 0%
- Activity [2]: 19.8%
- Activity [3]: 6.2%
- Activity [4]: 26.1%
- Activity [5]: Dose-dependent effect
- Activity [6]: 73%
- Activity [7]: 44.1%
- Activity [8]: 38.2%
- Activity [9]: 39.4%
- Activity [10]: 0%
- Activity [11]: 78.6%
- Activity [12]: 0%
- Activity [13]: 0.7%
- Activity [14]: 0%
- Activity [15]: Dose-dependent effect
- Activity [16]: 37.9%
- Activity [17]: 34.4%
- Activity [18]: 21.6%
- Activity [19]: 1.2%
- Activity [20]: 87.7%
- Activity [21]: 4%
- Activity [22]: 27.2%
- Activity [23]: 0%
- Activity [24]: 1.5%
- Activity [25]: 80.8%
- Activity [26]: 9.1%
- Activity [27]: 22.5%
- Activity [28]: 1.1%
- Activity [29]: 0%
- Activity [30]: 0%
- Activity [31]: 97%
- Activity [32]: 3%
- Activity [33]: 7.5%
- Activity [34]: 0%

— ChEMBL document CHEMBL1137802, “Specific antioxidant activity of caffeoyl derivatives and other natural phenolic compounds: LDL protection against oxidation and decrease in the proinflammatory lysophosphatidylcholine production” (J Nat Prod, 2001)
